Source: a compilation of properties of binary mixtures (doi:10.1021/jp3100377)

Assay: xn = mol fraction of the nth substance listed
Settings: 100 kPa

CC(=O)[O-].CC[n+]1ccn(C)c1 + O
viscosity [mPa·s]
Settings	293.15 K	303.15 K	313.15 K	323.15 K	333.15 K	343.15 K	353.15 K
x2 = 0	203	104.8	61.1	38.9	26.56	19.01	14.24
x2 = 0.2088	–	77.9	–	–	20.8	–	–
x2 = 0.4	88.6	–	–	23.04	16.47	–	9.27
x2 = 0.6014	51.8	32.6	21.88	15.4	11.09	8.39	–
x2 = 0.8023	20.45	13.51	9.41	6.6	4.95	–	3.021
